According to patent publication US9164053B2, “Electronic device for monitoring single molecule dynamics” (THE REGENTS OF THE UNIVERSITY OF CALIFORNIA, priority 2011, dated 2015):

Legend:
lysozyme = biological target: T1, lysozyme (Enterobacteria phage T4, UniProt P00720, C54T/C97A/S90C); assay type: biochemical
T1 construct: made in house
Experimental: The single sensitizing molecule is a cysteine variant of T4 lysozyme which contains a single substituted cysteine as the mutation S90C to provide a reactive thiol for bio-conjugation. […] A 54 μM solution of the cysteine variant of T4 lysozyme in phosphate buffer (20 mM Na2HPO4, pH 7) is prepared. Devices dilutely coated with the linker molecule pyrene maleimide non-covalently attached to the SWNT were soaked in the lysozyme solution at room temperature for 60 minutes without agitation. Devices were then soaked in wash buffer (5 mM KCl, 10 mM Na2HPO4, 0.05% polysorbate 20, pH 7) for 30 minutes with shaking to remove unattached lysozyme. Devices were finally rinsed under flowing de-ionized water for 5 minutes.

[1] = biological target: T2, DNA polymerase 1 (Klenow Fragment, KF) (Escherichia coli, UniProt P00582, L790C); experiment: DNA polymerase I (Klenow fragment) single molecule device, nucleotide incorporation; assay type: biochemical, E. Coli; conditions: for average ΔI signal amplitude of incorporation, rank among four bases: FIG. 16C; for turnover rate / τ hi / τ lo: homopolymer DNA substrate with complementary nucleotide
T2 construct: a cysteine variant of the Klenow fragment of DNA polymerase 1 (KF); made in house
Experimental: The linker molecule is pyrene maleimide, with the pyrene functional group non-covalently attached to the SWNT sidewall. The single sensitizing molecule is a cysteine variant of the Klenow fragment of DNA polymerase 1 (KF) derived from E. Coli, which contains a single inserted cysteine at site 790 to provide a reactive thiol for bio-conjugation. The cysteine variant of KF was synthesized by methods known in the art. A 0.2 mg/mL solution of the cysteine variant of KF in activation buffer (10 mM Tris-HCl, 10 mM MgCl2, 50 mM NaCl, 1 mM DTT, pH 7.9) is prepared. Devices dilutely coated with the linker molecule pyrene maleimide non-covalently attached to the SWNT were soaked in the KF solution at room temperature for 60 minutes without agitation. Devices were then soaked in wash buffer (10 mM Tris-HCl, 10 mM MgCl2, 50 mM NaCl, 0.1 mM TCEP, 0.1% polysorbate 20, pH 7.9) for 30 minutes with shaking to remove unattached KF. Devices were finally rinsed under flowing activation buffer for 5 minutes and stored in this solution until used. These conditions lead to a density of approximately one KF molecule per micrometer of exposed SWNT.
In the preferred embodiment of Example 3, the sensitizing molecule is DNA polymerase 1 (Klenow Fragment, KF), and the chemical environment is a 100 nM solution of deoxyribonucleic acid (DNA) template and 100 μM deoxyribonucleotide triphosphate (dNTP) in buffer (50 mM NaCl, 10 mM MgCl2, 20 mM Tris, 10 mM dithiothreitol, pH 7.8). As before, high (Ihi) and low (Ilo) current values are observed during chemical activity and monitored in time. […] Transient pulses to a smaller current Ilo occur in the presence of chemical activity, which in this system requires the simultaneous presence of DNA template, dNTP to be incorporated, and Mg^2+ ions. Electrical transitions from Ihi to Ilo indicate the incorporation of one nucleotide into the template and can be statistically analyzed in the same ways as described for lysozyme.
FIGS. 15A-15D illustrate the signals produced by this embodiment when measured in buffer with different combinations of substrate and nucleotides. FIGS. 15A and 15B show the response of a KF sensitizing molecule measured with at least 10 nM polyC substrate and an excess of dGTP on 1 second and 0.1 second time scales, respectively. In the latter graph, the timing and amplitude of individual events are clearly resolved. Each event represents the addition of the nucleotide dGTP to the polyC substrate. FIGS. 15C and 15D show the same device measured with at least 10 nM polyA substrate and an excess of dTTP on identical time scales. On average, the individual events in FIG. 15D have shorter durations and higher amplitudes than the events in FIG. 15B. When either substrate or nucleotides are absent in these measurements, no transitions to Ilo are observed. Again, with reference to FIG. 15D, each event (dip in measured current) represents the addition of the nucleotide dTTP to the poly A substrate.
The device is capable of distinguishing all four types of base incorporation, and allows large numbers of individual events to be analyzed statistically. FIGS. 16A-16C illustrates typical types of analysis performed on data generated by a single KF protein in the presence of different combinations of DNA substrates and nucleotides. FIG. 16A plots the single-molecule probability distributions for the Ihi states of all four bases A, C, G, and T. Fits to each distribution are shown as solid lines and determine the mean value of τhi for each base pair. FIG. 16B plots the distributions for the four Ilo states and gives the values of τlo. The values of τhi are much longer than τlo and therefore they determine the overall turnover rate of the KF protein for a particular type of base. The data distinguish dGTP and dCTP as having shorter incorporation times and faster turnover rates than either dTTP or dATP. […]

[2] = single molecule sensing device, lysozyme processing peptidoglycan (current fluctuations); assay type: biochemical
Experimental: The linker molecule is pyrene maleimide, with the pyrene functional group non-covalently attached to the SWNT sidewall. The single sensitizing molecule is a cysteine variant of T4 lysozyme which contains a single substituted cysteine as the mutation S90C to provide a reactive thiol for bio-conjugation. The cysteine variant of T4 lysozyme was synthesized by methods known in the art. A 54 μM solution of the cysteine variant of T4 lysozyme in phosphate buffer (20 mM Na2HPO4, pH 7) is prepared. Devices dilutely coated with the linker molecule pyrene maleimide non-covalently attached to the SWNT were soaked in the lysozyme solution at room temperature for 60 minutes without agitation. Devices were then soaked in wash buffer (5 mM KCl, 10 mM Na2HPO4, 0.05% polysorbate 20, pH 7) for 30 minutes with shaking to remove unattached lysozyme. Devices were finally rinsed under flowing de-ionized water for 5 minutes. These conditions lead to a density of approximately one T4 lysozyme molecule per micrometer of exposed SWNT.
The fully fabricated device is used by submerging the device in a gaseous or liquid environment. Temperature of the environment should be controlled and held constant and, in the case of liquids, so should the pH and electrochemical potential. An electrical bias is created and held constant between the source and the drain electrode. The current between the source, and the drain is measured over time and collected as control data points. The device is then exposed to a different chemical environment, and the levels of the current between the source and the drain is measured over time collected as experimental data points.
In the embodiment of Example 2, the sensitizing molecule was lysozyme, and the chemical environment is 25 μg/ml peptidoglycan substrate in PBS buffer. The high (Ihi) and the low current values (Ilo) after the device is exposed to the peptidoglycan are measured over time. The parameters of the relative difference ΔI=(Ihi−Ilo)/Ilo are statistically analyzed, and have been determined to be the most reliable way to analyze the conformational changes in the sensitizing molecule. […] Ihi, on the other hand, is substantially larger and is assigned to the mechanically-closed conformation of lysozyme around a bound peptidoglycan molecule. Electrical transitions from Ilo to Ihi indicate the hinge-like closure of lysozyme as it attempts to catalytically cleave a glycosidic bond of the peptidoglycan.
In the more preferred embodiment, oscillations in the electrical current between Ilo and Ihi occur with a broad distribution of stochastic durations that mirror the enzyme's activity. Sequences of ten or more oscillations can be categorized into one of two activity types, one slow and one fast. The slow oscillation corresponds to productive enzyme activity where the enzyme is successfully cleaving bonds of the peptidoglycan. […] The amplitude of the signal ΔI is nearly the same in both slow and fast oscillations and is measured to be nearly constant, which supports a conclusion that the same range of molecular motion is being measured for both types of activity. This concurs with data from FRET which has previously proven that the range of mechanical motion in lysozyme is the same for both types of activity.
FIG. 2A illustrates an extended sequence of current fluctuation over 30 seconds, with the mean value highlighted using the setup of Example 2. […] The fast oscillations occur on average 300 times per second. The slow oscillations occur on average 15 times per second. The exact rate of either oscillation varies from one conformation to another, so that long-duration measurements observe the conversion of the enzyme to different possible rates. In different minutes of measurement, the same protein can undergo slow oscillations varying from 10 to 80 times per second.
FIG. 4 summarizes the data with mean values of τlo and τhi. Another figure of merit for each parameter is the statistical variance. […]

T2 sequence (P00582 324-928 L790C): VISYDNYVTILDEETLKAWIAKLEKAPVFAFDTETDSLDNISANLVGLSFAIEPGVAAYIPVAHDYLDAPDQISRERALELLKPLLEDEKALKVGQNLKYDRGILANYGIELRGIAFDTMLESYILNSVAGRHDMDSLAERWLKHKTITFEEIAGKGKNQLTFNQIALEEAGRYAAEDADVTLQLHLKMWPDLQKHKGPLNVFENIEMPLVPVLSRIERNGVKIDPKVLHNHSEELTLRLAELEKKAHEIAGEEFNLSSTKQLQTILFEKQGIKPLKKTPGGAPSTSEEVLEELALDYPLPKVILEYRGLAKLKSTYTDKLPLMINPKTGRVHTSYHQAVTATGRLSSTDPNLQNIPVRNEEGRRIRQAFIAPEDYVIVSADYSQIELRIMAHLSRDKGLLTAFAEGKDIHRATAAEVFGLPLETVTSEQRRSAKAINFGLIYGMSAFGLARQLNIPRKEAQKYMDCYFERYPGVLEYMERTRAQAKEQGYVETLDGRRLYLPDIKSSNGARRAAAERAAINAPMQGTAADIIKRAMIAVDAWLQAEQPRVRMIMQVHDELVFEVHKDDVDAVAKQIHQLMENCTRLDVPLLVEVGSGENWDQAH

O=C(O)CCc1c[nH]c2ccccc12 [I3P, indole-3-propionic acid]
pulse amplitude ΔI (lysozyme; 10 mM I3P): +20%
pulse duration τhi (lysozyme; 10 mM I3P): < 1 ms
interactions with inhibitor in electronic I(t) signals (lysozyme; weakly-interacting, non-covalent inhibitors): clearly observed

Nc1ncnc2c1ncn2[C@H]1C[C@H](O)[C@@H](COP(=O)(O)OP(=O)(O)OP(=O)(O)O)O1 [dATP]
average ΔI signal amplitude of incorporation, rank among four bases [1]: largest
turnover rate [1]: 14.4 ± 2.9 s⁻¹
τ hi [1]: 71.4 ± 14.3 ms
τ lo [1]: 0.33 ± 0.08 ms

Nc1ccn([C@H]2C[C@H](O)[C@@H](COP(=O)(O)OP(=O)(O)OP(=O)(O)O)O2)c(=O)n1 [dCTP]
turnover rate [1]: 26.2 ± 4.4 s⁻¹
τ hi [1]: 39.0 ± 5.6 ms
τ lo [1]: 0.32 ± 0.07 ms

Nc1nc2c(ncn2[C@H]2C[C@H](O)[C@@H](COP(=O)(O)OP(=O)(O)OP(=O)(O)O)O2)c(=O)[nH]1 [dGTP]
average ΔI signal amplitude of incorporation, rank among four bases [1]: smallest
turnover rate [1]: 28.5 ± 3.5 s⁻¹
τ hi [1]: 38.0 ± 5.8 ms
τ lo [1]: 0.33 ± 0.06 ms

Cc1cn([C@H]2C[C@H](O)[C@@H](COP(=O)(O)OP(=O)(O)OP(=O)(O)O)O2)c(=O)[nH]c1=O [dTTP]
turnover rate [1]: 16.0 ± 2.9 s⁻¹
τ hi [1]: 63.7 ± 11.4 ms
τ lo [1]: 0.42 ± 0.09 ms

lysozyme
normalized variance rhi ([2]; Nonproductive (fast), pH 5): 0.48 ± 0.10
normalized variance rlo ([2]; Nonproductive (fast), pH 5): 0.97 ± 0.13
normalized variance rhi ([2]; Nonproductive (fast), pH 7): 0.43 ± 0.06
normalized variance rlo ([2]; Nonproductive (fast), pH 7): 0.99 ± 0.09
normalized variance rhi ([2]; Nonproductive (fast), pH 11): 0.61 ± 0.08
normalized variance rlo ([2]; Nonproductive (fast), pH 11): 1.00 ± 0.10
normalized variance rhi ([2]; Processing (slow), pH 5): 0.68 ± 0.15
normalized variance rlo ([2]; Processing (slow), pH 5): 1.00 ± 0.18
normalized variance rhi ([2]; Processing (slow), pH 7): 0.74 ± 0.12
normalized variance rlo ([2]; Processing (slow), pH 7): 1.06 ± 0.15
normalized variance rhi ([2]; Processing (slow), pH 11): 0.60 ± 0.15
normalized variance rlo ([2]; Processing (slow), pH 11): 1.11 ± 0.23
slow oscillations, average rate ([2]; catalytic processing, 25 μg/ml peptidoglycan in PBS): 15 times per second
time spent processing ([2]; linear peptidoglycan substrate without crosslinks): 88%
fast oscillations, average rate ([2]; nonproductive binding, 25 μg/ml peptidoglycan in PBS): 300 times per second
time spent processing ([2]; peptidoglycan substrate containing crosslinks): 51%
